Reference: the NIST ThermoML archive (doi:10.1021/je060082s)
Where “and” joins values, the source holds several entries; their conditions need not be identical. Identical values can stand only once. Numbers after ± are expanded uncertainties.

Conditions: Liquid; for mass density: 101.33 kPa, Vibrating tube method

## CCCCCCCC[n+]1ccn(C)c1.F[B-](F)(F)F [1-methyl-3-octylimidazolium tetrafluoroborate]
273.1 K
  mass density: 1120.96 ± 3 kg/m3
273.15 K, 100 kPa
  viscosity: 2291 ± 57 mPa·s and 2289 ± 57 mPa·s
278.1 K
  mass density: 1117.48 ± 2.9 kg/m3
278.15 K, 100 kPa
  viscosity: 1477 ± 37 mPa·s and 1478 ± 37 mPa·s
283.1 K
  mass density: 1114.01 ± 2.9 kg/m3
283.15 K, 100 kPa
  viscosity: 982 ± 25 mPa·s
288.15 K, 100 kPa
  viscosity: 673 ± 17 mPa·s
288.15 K
  mass density: 1110.55 ± 2.9 kg/m3
293.15 K, 100 kPa
  viscosity: 473 ± 12 mPa·s
293.15 K
  mass density: 1107.11 ± 2.9 kg/m3
298.15 K, 100 kPa
  viscosity: 341 ± 9 mPa·s
298.15 K
  mass density: 1103.68 ± 2.9 kg/m3
298.15 K, 11200 kPa
  viscosity: 393 ± 10 mPa·s
298.15 K, 26200 kPa
  viscosity: 475.7 ± 12 mPa·s
298.15 K, 50500 kPa
  viscosity: 638.3 ± 16 mPa·s
298.15 K, 51500 kPa
  viscosity: 645.9 ± 16 mPa·s
298.15 K, 60800 kPa
  viscosity: 720.1 ± 18 mPa·s
298.15 K, 80200 kPa
  viscosity: 902.3 ± 23 mPa·s
298.15 K, 100200 kPa
  viscosity: 1130 ± 28 mPa·s
298.15 K, 116700 kPa
  viscosity: 1359 ± 34 mPa·s
298.15 K, 117500 kPa
  viscosity: 1371 ± 34 mPa·s
303.15 K, 100 kPa
  viscosity: 251 ± 7 mPa·s
303.15 K
  mass density: 1100.24 ± 2.9 kg/m3
308.15 K, 100 kPa
  viscosity: 188.4 ± 5.1 mPa·s [middle of 5 runs]
308.15 K, 800 kPa
  viscosity: 190.1 ± 5.2 mPa·s
308.15 K, 2900 kPa
  viscosity: 194.9 ± 5.3 mPa·s
308.15 K, 5600 kPa
  viscosity: 204.3 ± 5.5 mPa·s
308.15 K, 10900 kPa
  viscosity: 214.2 ± 5.7 mPa·s
308.15 K, 26000 kPa
  viscosity: 255.1 ± 6.7 mPa·s
308.15 K, 50700 kPa
  viscosity: 337.1 ± 8.7 mPa·s
308.15 K, 76200 kPa
  viscosity: 444 ± 11 mPa·s
308.15 K, 100300 kPa
  viscosity: 571.1 ± 14 mPa·s
308.15 K, 124400 kPa
  viscosity: 731.7 ± 18 mPa·s
308.15 K, 150200 kPa
  viscosity: 945.5 ± 24 mPa·s
308.15 K, 200100 kPa
  viscosity: 1527 ± 38 mPa·s
313.15 K, 100 kPa
  viscosity: 144.1 ± 4.1 mPa·s
313.15 K
  mass density: 1093.37 ± 2.9 kg/m3
323.15 K, 100 kPa
  viscosity: 88.8 ± 3 mPa·s and 88.7 ± 3 mPa·s
323.15 K
  mass density: 1086.56 ± 2.9 kg/m3
323.15 K, 700 kPa
  viscosity: 89.2 ± 3 mPa·s
323.15 K, 4900 kPa
  viscosity: 93.5 ± 3.1 mPa·s
323.15 K, 10500 kPa
  viscosity: 99.3 ± 3.2 mPa·s
323.15 K, 25800 kPa
  viscosity: 118.2 ± 3.6 mPa·s
323.15 K, 50800 kPa
  viscosity: 150.1 ± 4.3 mPa·s
323.15 K, 75700 kPa
  viscosity: 191.2 ± 5.2 mPa·s
323.15 K, 100600 kPa
  viscosity: 241.8 ± 6.4 mPa·s
323.15 K, 125500 kPa
  viscosity: 303.1 ± 7.8 mPa·s
323.15 K, 149900 kPa
  viscosity: 376.5 ± 9.6 mPa·s
323.15 K, 175500 kPa
  viscosity: 469.8 ± 12 mPa·s
323.15 K, 199800 kPa
  viscosity: 577.3 ± 15 mPa·s
333.15 K, 100 kPa
  viscosity: 57.8 ± 2.5 mPa·s
333.15 K
  mass density: 1079.83 ± 2.8 kg/m3
333.15 K, 10800 kPa
  viscosity: 64.4 ± 2.6 mPa·s
333.15 K, 25700 kPa
  viscosity: 74.6 ± 2.7 mPa·s
333.15 K, 50300 kPa
  viscosity: 94.3 ± 3.1 mPa·s
333.15 K, 75600 kPa
  viscosity: 118.7 ± 3.6 mPa·s
333.15 K, 100500 kPa
  viscosity: 147.7 ± 4.2 mPa·s
333.15 K, 125300 kPa
  viscosity: 182.5 ± 5 mPa·s
333.15 K, 150200 kPa
  viscosity: 224.3 ± 6 mPa·s
333.15 K, 175100 kPa
  viscosity: 274.4 ± 7.1 mPa·s
333.15 K, 200000 kPa
  viscosity: 334.1 ± 8.6 mPa·s
343.15 K, 100 kPa
  viscosity: 39.4 ± 2.2 mPa·s
343.15 K
  mass density: 1073.18 ± 2.8 kg/m3
348.15 K, 100 kPa
  viscosity: 32.8 ± 2.2 mPa·s
348.15 K, 300 kPa
  viscosity: 32.7 ± 2.2 mPa·s
348.15 K, 1600 kPa
  viscosity: 33.2 ± 2.2 mPa·s
348.15 K, 3100 kPa
  viscosity: 33.7 ± 2.2 mPa·s
348.15 K, 5400 kPa
  viscosity: 34.4 ± 2.2 mPa·s
348.15 K, 10200 kPa
  viscosity: 36 ± 2.2 mPa·s
348.15 K, 25600 kPa
  viscosity: 41.4 ± 2.3 mPa·s
348.15 K, 50300 kPa
  viscosity: 51.5 ± 2.4 mPa·s
348.15 K, 75600 kPa
  viscosity: 63.6 ± 2.6 mPa·s
348.15 K, 100500 kPa
  viscosity: 77.7 ± 2.8 mPa·s
348.15 K, 125400 kPa
  viscosity: 94.3 ± 3.1 mPa·s
348.15 K, 150400 kPa
  viscosity: 114.3 ± 3.5 mPa·s
348.15 K, 175300 kPa
  viscosity: 136.8 ± 4 mPa·s
348.15 K, 200200 kPa
  viscosity: 163.6 ± 4.6 mPa·s
348.15 K, 224200 kPa
  viscosity: 193.7 ± 5.2 mPa·s
353.15 K, 100 kPa
  viscosity: 28.1 ± 2.1 mPa·s
353.15 K
  mass density: 1066.6 ± 2.8 kg/m3
363.15 K
  mass density: 1060.08 ± 2.8 kg/m3

## CCCCCCCC[n+]1ccn(C)c1.F[P-](F)(F)(F)(F)F [1-octyl-3-methylimidazolium hexafluorophosphate]
273.1 K
  mass density: 1256.13 ± 3.3 kg/m3
273.15 K, 100 kPa
  viscosity: 6410 ± 160 mPa·s
278.1 K
  mass density: 1252.25 ± 3.3 kg/m3
278.15 K, 100 kPa
  viscosity: 3889 ± 97 mPa·s
283.1 K
  mass density: 1248.38 ± 3.3 kg/m3
283.15 K, 100 kPa
  viscosity: 2439 ± 61 mPa·s
288.15 K
  mass density: 1244.52 ± 3.3 kg/m3
293.15 K, 100 kPa
  viscosity: 1065 ± 27 mPa·s
293.15 K
  mass density: 1240.68 ± 3.3 kg/m3
298.15 K, 100 kPa
  viscosity: 734.4 ± 18 mPa·s and 731.6 ± 18 mPa·s
298.15 K
  mass density: 1236.84 ± 3.3 kg/m3 and 1236.75 ± 3.3 kg/m3
298.15 K, 10200 kPa
  viscosity: 853.7 ± 21 mPa·s
298.15 K, 24600 kPa
  viscosity: 1041 ± 26 mPa·s
298.15 K, 39900 kPa
  viscosity: 1299 ± 33 mPa·s
303.15 K, 100 kPa
  viscosity: 519.3 ± 13 mPa·s
303.15 K
  mass density: 1233.01 ± 3.2 kg/m3
308.15 K, 100 kPa
  viscosity: 374.6 ± 9.6 mPa·s and 370.9 ± 9.5 mPa·s
308.15 K, 5500 kPa
  viscosity: 404.3 ± 10 mPa·s
308.15 K, 9900 kPa
  viscosity: 430.2 ± 11 mPa·s
308.15 K, 25600 kPa
  viscosity: 531.2 ± 13 mPa·s
308.15 K, 48400 kPa
  viscosity: 716.3 ± 18 mPa·s
308.15 K, 74900 kPa
  viscosity: 1008 ± 25 mPa·s
313.15 K, 100 kPa
  viscosity: 276.8 ± 7.2 mPa·s
313.15 K
  mass density: 1225.34 ± 3.2 kg/m3
323.15 K, 100 kPa
  viscosity: 158 ± 4.5 mPa·s and 159 ± 4.5 mPa·s and 159.2 ± 4.5 mPa·s
323.15 K
  mass density: 1217.7 ± 3.2 kg/m3 and 1217.68 ± 3.2 kg/m3
323.15 K, 24800 kPa
  viscosity: 217.5 ± 5.8 mPa·s
323.15 K, 26300 kPa
  viscosity: 222 ± 5.9 mPa·s
323.15 K, 49900 kPa
  viscosity: 295 ± 7.7 mPa·s
323.15 K, 60500 kPa
  viscosity: 348.9 ± 9 mPa·s
323.15 K, 74800 kPa
  viscosity: 395 ± 10 mPa·s
323.15 K, 76000 kPa
  viscosity: 404.2 ± 10 mPa·s
323.15 K, 99700 kPa
  viscosity: 524.6 ± 13 mPa·s
333.15 K, 100 kPa
  viscosity: 97 ± 3.2 mPa·s and 97.9 ± 3.2 mPa·s and 97.8 ± 3.2 mPa·s
333.15 K
  mass density: 1210.29 ± 3.2 kg/m3
333.15 K, 13500 kPa
  viscosity: 115.2 ± 3.5 mPa·s
333.15 K, 30300 kPa
  viscosity: 140.6 ± 4 mPa·s
333.15 K, 50400 kPa
  viscosity: 176.2 ± 4.8 mPa·s
333.15 K, 75100 kPa
  viscosity: 230.4 ± 6.1 mPa·s
333.15 K, 100400 kPa
  viscosity: 300.7 ± 7.8 mPa·s
333.15 K, 125200 kPa
  viscosity: 387.3 ± 9.9 mPa·s
343.15 K, 100 kPa
  viscosity: 63.7 ± 2.6 mPa·s [middle of 4 runs]
343.15 K
  mass density: 1202.88 ± 3.2 kg/m3
343.15 K, 10000 kPa
  viscosity: 70 ± 2.7 mPa·s
343.15 K, 21300 kPa
  viscosity: 81 ± 2.8 mPa·s
343.15 K, 51800 kPa
  viscosity: 112.7 ± 3.5 mPa·s
343.15 K, 72900 kPa
  viscosity: 138.7 ± 4 mPa·s
343.15 K, 100300 kPa
  viscosity: 182.6 ± 5 mPa·s
343.15 K, 125900 kPa
  viscosity: 233.7 ± 6.2 mPa·s
343.15 K, 148800 kPa
  viscosity: 296.2 ± 7.7 mPa·s
343.15 K, 175900 kPa
  viscosity: 378.4 ± 9.7 mPa·s
353.15 K, 100 kPa
  viscosity: 43 ± 2.3 mPa·s
353.15 K
  mass density: 1195.49 ± 3.1 kg/m3
363.15 K
  mass density: 1188.13 ± 3.1 kg/m3
